Data published in patent US20260335282A1, “NOVEL 3-ARYLIDENE-2-INDOLINONE DERIVATIVES FOR THERAPEUTIC USE” (ISTANBUL UNIVERSITESI REKTORLUGU, priority 2022, published 2026).
“Also recorded” adds a separate entry of the source. Where two headings read alike, the source gives them in different places.

What was measured:
MCF-7 cells = test: MTT cytotoxicity, breast cancer cells MCF-7; format: cell-based, human; details: MTT
Excerpt: (§1) The cytotoxicity, general tyrosine kinase inhibitory effects and cell death (apoptosis/necrosis) assays of 1-benzyl-3-(1H-indol-3-ylmethylidene)-1,3-dihydro-2H-indol-2-one derivatives (Formula 5) of the present invention are studied by the following methods. […] HUVEC (human umbilical vein endothelial cell), MCF-10F (human breast epithelial cell) and Beas2b (human lung bronchial epithelial cell) cell lines have been used as healthy control cells in MTT experiments.
(§2) Beas2b (human lung bronchiole epithelial cell) and HEK293 (renal tubule epithelium) cells used as normal cell lines were cultured in RPMI medium, and HUVEC (human umbilical cord endothelial cells) and MCF-10F (human breast epithelial cell) cells are cultured in DMEM medium containing 100 µg/ml penicillin/streptomycin. The cells, which covered 70% of the culture flask, are washed with phosphate buffer and then removed from the surface of the flask by application of trypsin-ethylenediamine tetraacetic acid (Trypsin-EDTA; 0.25%) solution, passaged, counted and seeded on appropriate plates before each experiment. Cells are treated with a total of 45 2-indolinone compounds (5) at concentrations of 0.1, 1, 5 and 10 μM. Stock compounds are prepared in 1 ml dimethylsulfoxide (DMSO) and 4 different dilutions were prepared with medium and performed to the cells. Control group cells are treated with DMSO at a similar concentration to the experimental groups.
(§3) MTT (3-(4,5-dimethylthiazol-2-yl)-2,5-diphenyl-2H-tetrazolium bromide) colorimetric assay provides quantitation of viable cells with ongoing mitochondrial activity in culture medium. According to the standard procedure in cell culture conditions, cells are maintained in RPMI-1640 and DMEM culture media containing 10% FBS and 1% penicillin/streptomycin. The trypan blue test is used for cell counts.
(§4) The effects of 45 2-indolinone compounds (5) on cell viability in all cancer cell lines are investigated by MTT assay. Cells are seeded in a 96-well flat bottom plate with 5000 cells in each well and 2-indolinone compounds (5) at concentrations of 0.1, 1, 5 and 10 μM are performed to the cells the next day. After 48 and/or 72 hours following treatment with 2-indolinone compounds, 50 μl of the supernatant is slowly discarded (as it was acid medium) and MTT at a concentration of 5 mg/ml is added to each well in a volume of 10 μl. After incubation for 4 hours, the formazan crystals formed in the wells are dissolved by adding 100 μl DMSO and the optical density is read at 570 nm test wavelength and 630 nm reference wavelength. Cell viability is expressed as % cell viability by comparing the absorbance of control and test wells. IC50 value is calculated from the dose-response curves prepared for each compound. In addition, the possible DMSO effect is eliminated by preparing negative control wells compatible with the amount of DMSO contained in the compounds. To understand the reaction of the compounds with MTT, cell-free (MTT+compounds) negative controls are prepared at the concentrations used (Mosmann, 1983). […] The absorbance values obtained are compared to the control and statistically evaluated by unpaired t-test using “Graphpad Prism 5.04” software. “P<0.05” is accepted as significant. When evaluating cytotoxic effects, the present inventors aim for the inventive compounds to be effective in cancer cells and ineffective in healthy cells. The inventive compounds have also been compared with sunitinib, one of the reference chemotherapy drugs currently used in treatment.
(§5) Among the compounds of the present invention, those that killed cancer cells by at least 50% (p<0.05) are selected and tested whether a 10-fold concentration of the M concentration at the IC50 value is toxic to normal healthy cells.

MDA-MB-231 cells = test: MTT cytotoxicity, breast cancer cells MDA-MB-231; format: cell-based, human; details: for IC50: MTT, no * mark (incubation time not given)
Excerpt: as §1, §2, §3, §4, §5

A549 cells = test: MTT cytotoxicity, lung cancer cells A549; format: cell-based, human
Excerpt: as §1, §2, §3, §4, §5

CAKI-1 cells = test: MTT cytotoxicity, kidney cancer cells CAKI-1; format: cell-based, human
Excerpt: as §1, §2, §3, §4, §5

A498 cells = test: MTT cytotoxicity, kidney cancer cells A498; format: cell-based, human; details: MTT
Excerpt: as §1, §2, §3, §4, §5

MCF-10F/Beas2b cells = test: MTT cytotoxicity, healthy cells MCF-10F/Beas2b; format: cell-based, human; details: for IC50: Homo sapiens, MTT
Excerpt: as §1, §2, §3, §4, §5

HUVEC cells = test: MTT cytotoxicity, healthy cells HUVEC; format: cell-based, human; details: for IC50: MTT
Excerpt: as §1, §2, §3, §4, §5

HT-29 cells = test: MTT cytotoxicity, colon cancer cells HT-29; format: cell-based, human; details: MTT
Excerpt: as §1, §2, §3, §4

HCT-116 cells = test: MTT cytotoxicity, colon cancer cells HCT-116; format: cell-based, human
Excerpt: as §1, §2, §3, §4

MIAPaCa-2 cells = test: MTT cytotoxicity, pancreas cancer cells MIAPaCa-2; format: cell-based, human
Excerpt: as §1, §2, §3, §4

human cancer cells = test: MTT cell viability, human cancer cells overall; format: cell-based; details: cell line as discussed at the place
Excerpt: as §1, §2, §3
The effects of 45 2-indolinone compounds (5) on cell viability in all cancer cell lines are investigated by MTT assay. Cells are seeded in a 96-well flat bottom plate with 5000 cells in each well and 2-indolinone compounds (5) at concentrations of 0.1, 1, 5 and 10 μM are performed to the cells the next day. After 48 and/or 72 hours following treatment with 2-indolinone compounds, 50 μl of the supernatant is slowly discarded (as it was acid medium) and MTT at a concentration of 5 mg/ml is added to each well in a volume of 10 μl. After incubation for 4 hours, the formazan crystals formed in the wells are dissolved by adding 100 μl DMSO and the optical density is read at 570 nm test wavelength and 630 nm reference wavelength. Cell viability is expressed as % cell viability by comparing the absorbance of control and test wells. IC50 value is calculated from the dose-response curves prepared for each compound. In addition, the possible DMSO effect is eliminated by preparing negative control wells compatible with the amount of DMSO contained in the compounds. To understand the reaction of the compounds with MTT, cell-free (MTT+compounds) negative controls are prepared at the concentrations used (Mosmann, 1983). […] The absorbance values obtained are compared to the control and statistically evaluated by unpaired t-test using “Graphpad Prism 5.04” software. “P<0.05” is accepted as significant. When evaluating cytotoxic effects, the present inventors aim for the inventive compounds to be effective in cancer cells and ineffective in healthy cells. […]

[1] = tested on: general tyrosine kinase activity in MIA PaCa-2 pancreas cancer cells; test: General tyrosine kinase activity (ELISA) in MIAPaCa-2 cells; format: cell-based, human; details: 72 hours, IC50 concentration
Experimental: Takara Universal Tyrosine Kinase Assay Kit is used to determine the effects of 11 2-indolinone compounds (Y1, Y2, Y3, Y4, Y5, Y8, […], […], Y21, Y23, 20C, 22C) on general tyrosine kinase activity in cancer cells. Cells are seeded in 6-well plates (4.10^5 cells/well) and the IC50 concentration of each selected molecule is performed to the cells for 48 or 72 hours. Cells in the control group are incubated with medium only. At the end of the incubation period, the cells in each well are washed with PBS and cells are removed from the wells using a cell scraper via 1 ml of the extraction buffer in the kit. The cell lysate is transferred to ependorf tubes and centrifuged at 10.000 g for 10 minutes at +4° C. and the supernatant is used as a sample for activity determination. After the extracts obtained from the control and experimental groups are diluted 1:25, 40 μl extracts is transferred to two wells in the 96-well plate in the kit. In addition, the standard solution in the kit is diluted according to the kit instructions and each concentration is transferred 40 μl into three wells. 10 μl of 40 mM ATP-2Na solution is added to all wells and the plate is incubated at 37° C. for 30 minutes. After incubation, all wells are washed 4 times with wash buffer. 100 μl of blocking solution is added to each well and incubated again at 37° C. for 30 minutes. After incubation, the liquid in the wells is discarded and 50 μl of anti-phosphotyrosine-HRP solution is added to each well and incubated at 37° C. for 30 minutes. The wells are washed again four times with wash buffer and 100 μl of HRP-substrate solution (TMBZ) is added to each well and incubated at 37° C. for 15 minutes. The reaction is finished by adding 100 μl of stop solution to each well and the optical density in each well is measured at 405 nm with a microplate reader (BioTek, USA). The tyrosine kinase activity in each sample is calculated from the standard curve obtained from the absorbance values of the standard solutions with the kit (Chan W Y, Lau P M, Yeung K W, Kong S K. The second generation tyrosine kinase inhibitor dasatinib induced eryptosis in human erythrocytes—An in vitro study. Toxicol Lett. 2018; 295:10-21). This activity is normalized compared to the control group by dividing by the amount of protein in each sample.
The effects of 11 2-indolinone compounds (Y1, Y2, Y3, Y4, Y5, Y8, Y14, Y21, Y23, 20C and 22C) having the structure of formula (5), which are prominent with their cytotoxicity in A498, MIAPaCa-2 and HCT-116 cancer cell lines and nontoxic properties in healthy cells, on general tyrosine kinase activity in cancer cells are determined.

[2] = tested on: pancreas and kidney cancer cells; test: Apoptosis detection, Annexin V/PI flow cytometry, pancreas and kidney cancer cells; format: cell-based, human
Experimental: After incubation with 2-indolinone compounds (IC50 μM concentration; 48 and/or 72 hours), cells are washed twice with PBS and the cell pellet is suspended in Annexin V binding buffer. After this incubation, cells are incubated with FITC-conjugated Annexin V and propidium iodine staining solution for 15 minutes in the dark and at room temperature. Then, cells are analyzed by flow cytometry (Beckman coulter, Navios) (Wlodkowic, D., Skommer, J, Darzynkiewicz, Z. 2009. Flow cytometry-based apoptosis detection, Methods Mol Biol., 559, 1-14).
Whether the 2-indolinone derivatives (5) with the highest selectivity index and general TKI activity stimulated apoptosis and necrosis is determined by Annexin V and propidium iodine staining in pancreas and kidney cancer cells. Annexin V/PI flow cytometry apoptosis values of the tested compounds Y1, Y2, Y3, Y4, Y8 and Y14 are found to be 40% and above in correlation with MTT results. The apoptosis rates of the control groups and the substances are analyzed by t test in GraphPad version 9.0.

[3] = no * mark (incubation time not specified)
[4] = read-out: IC50, MDA-MB-231 (breast)
[5] = *: effective 72 hours after incubation
[6] = MTT, no * mark (incubation time not specified)

Cc1cccc(CN2C(=O)/C(=C\c3c[nH]c4ccccc34)c3cccc(Cl)c32)c1 [27C]
IC50 (MCF-7 cells; [3]): 3.67 µM
selectivity index (SI) (MDA-MB-231 cells; MCF-10F vs MDA-MB-231): > 12
IC50 (MDA-MB-231 cells; [4]): 0.81 µM
IC50 (A549 cells; [3]): > 10 µM
IC50 (CAKI-1 cells; [3]): > 10 µM
IC50 (A498 cells; [3]): 2.4 µM
Selectivite Index (SI), MCF-10F/Beas2b (Table 1) (MCF-10F/Beas2b cells; MCF-10F/Beas2b vs breast or kidney cancer cells, cancer line not given): > 12.34
Selectivite Index (SI), HUVEC (Table 1) (HUVEC cells; HUVEC vs breast or kidney cancer cells, cancer line not given): 1.28
IC50 (HUVEC cells; [5]): 1.04 µM
IC50 (HT-29 cells; [3]): > 10 µM
IC50 (HCT-116 cells; [3]): > 10 µM
IC50 (MIAPaCa-2 cells; [6]): > 10 µM
potency/selectivity compared with sunitinib malate (human cancer cells): much more potent and have higher SI values than the reference compound sunitinib malate

O=C1/C(=C\c2c[nH]c3ccccc23)c2cc(Cl)ccc2N1Cc1ccc(F)cc1 [17C]
IC50 (MCF-7 cells; Homo sapiens, MCF7, *: effective 72 hours after incubation): 4.76 µM
IC50 (MDA-MB-231 cells; Homo sapiens, MDA-MB-231, read-out: IC50, MDA-MB-231 (breast)): > 10 µM
IC50 (A549 cells; Homo sapiens, A549, no * mark (incubation time not given)): 1.11 µM
IC50 (CAKI-1 cells; Homo sapiens, CAKI-1, *: effective 72 hours after incubation): 4.62 µM
IC50 (A498 cells; Homo sapiens, A498, 72 h, *: effective 72 hours after incubation): 0.77 µM
IC50 (MCF-10F/Beas2b cells; [5]): 2.66 µM
IC50 (MCF-10F/Beas2b cells; no * mark (incubation time not given)): 2.66 µM
cytotoxicity in healthy cells (MCF-10F/Beas2b cells; healthy cells): high in healthy cells
IC50 (HUVEC cells; Homo sapiens, HUVEC, no * mark (incubation time not given)): 1.24 µM
IC50 (HT-29 cells; Homo sapiens, HT-29, no * mark (incubation time not given)): 2.07 µM
IC50 (HCT-116 cells; Homo sapiens, HCT-116, no * mark (incubation time not given)): 0.93 µM
IC50 (MIAPaCa-2 cells; Homo sapiens, MIA PaCa-2, MTT, no * mark (incubation time not given)): 1.32 µM
potency/selectivity compared with sunitinib malate (human cancer cells): more potent than sunitinib malate

O=C1/C(=C\c2c[nH]c3ccccc23)c2cc(Cl)ccc2N1Cc1ccccc1 [Y2]
IC50 (MCF-7 cells; [3]): 4.16 µM
IC50 (MDA-MB-231 cells; [4]): 4.96 µM
IC50 (A549 cells; [3]): 4.04 µM
IC50 (CAKI-1 cells; [3]): 4.25 µM
IC50 (A498 cells; [3]): 2.36 µM
Selectivite Index, MCF-10F/Beas2b (Table 2) (MCF-10F/Beas2b cells; MCF-10F/Beas2b vs colon or pancreas cancer cells, cancer line not given): > 20.83
Selectivite Index, HUVEC (Table 2) (HUVEC cells; HUVEC vs colon or pancreas cancer cells, cancer line not given): 2.21
IC50 (HUVEC cells; [3]): 1.06 µM
IC50 (HT-29 cells; [3]): 1.52 µM
IC50 (HCT-116 cells; [3]): 1.44 µM
selectivity index (MIAPaCa-2 cells; MCF-10F/Beas2b vs MIAPaCa-2): > 21
IC50 (MIAPaCa-2 cells; [6]): 0.48 µM
general tyrosine kinase activity compared to control [1]: significantly decreased; also recorded: decreased the general tyrosine kinase activity
Annexin V/PI flow cytometry apoptosis values [2]: ≥ 40%
